Measured values taken from ChEMBL document CHEMBL4831557, “Parthenolide Derivatives as PKM2 Activators Showing Potential in Colorectal Cancer” (J Med Chem, 2021).
Active and inactive are the calls of the source. No cut-off for these calls is given here.

What was measured:
HCT-116 = assay: Cytotoxicity against human HCT-116 cells assessed as reduction in cell viability incubated for 48 hrs by MTT assay; type: functional, cell-based; conditions: HCT-116, 48 h
A549 = assay: cells; conditions: Homo sapiens, A549, 48 h
U2OS = assay: Cytotoxicity against human U2OS cells assessed as reduction in cell viability incubated for 48 hrs by MTT assay; type: functional, cell-based
Pyruvate kinase PKM = Pyruvate kinase PKM (Homo sapiens, UniProt P14618); assay: Activation of recombinant human PKM2 at 10 uM incubated 30 mins by fluorescence microplate reader analysis; conditions: filed as activator
Pyruvate kinase PKM, sequence (P14618 2-531 limits assumed): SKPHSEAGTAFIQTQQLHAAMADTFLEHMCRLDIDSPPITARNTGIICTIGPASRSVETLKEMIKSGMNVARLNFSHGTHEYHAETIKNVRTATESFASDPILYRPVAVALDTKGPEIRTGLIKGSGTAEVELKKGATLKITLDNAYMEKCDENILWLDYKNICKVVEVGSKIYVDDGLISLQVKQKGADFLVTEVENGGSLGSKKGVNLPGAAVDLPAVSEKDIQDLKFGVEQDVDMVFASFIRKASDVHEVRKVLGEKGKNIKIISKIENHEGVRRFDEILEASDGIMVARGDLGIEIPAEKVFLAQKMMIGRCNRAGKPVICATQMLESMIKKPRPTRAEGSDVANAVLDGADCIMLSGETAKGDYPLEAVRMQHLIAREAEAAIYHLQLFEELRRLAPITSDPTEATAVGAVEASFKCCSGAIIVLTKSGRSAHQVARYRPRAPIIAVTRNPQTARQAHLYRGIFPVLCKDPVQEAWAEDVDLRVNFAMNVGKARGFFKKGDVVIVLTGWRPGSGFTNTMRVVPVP

HT-29 = assay: Cytotoxicity against human HT-29 cells assessed as reduction in cell viability incubated for 48 hrs by MTT assay; type: functional, cell-based; conditions: HT-29, 48 h
MDA-MB-231 = assay: Cytotoxicity against human MDA-MB-231 cells assessed as reduction in cell viability incubated for 48 hrs by MTT assay; type: functional, cell-based; conditions: MDA-MB-231, 48 h
SW480 = assay: Cytotoxicity against human SW480 cells assessed as reduction in cell viability incubated for 48 hrs by MTT assay; type: functional, cell-based; conditions: SW480, 48 h
HepG2 = assay: Cytotoxicity against human HepG2 cells assessed as reduction in cell viability incubated for 48 hrs by MTT assay; type: functional, cell-based; conditions: HepG2, 48 h
NCM460 = assay: Cytotoxicity against human NCM460 cells assessed as reduction in cell viability incubated for 48 hrs by MTT assay; type: cell-based; conditions: NCM460, 48 h
[1] = Selectivity index, ratio of IC50 for human NCM460 cells to IC50 for human HT-29 cells; type: toxicity; conditions: NCM460 cells versus HT-29 cells, read-out: Ratio IC50
[2] = Selectivity index, ratio of IC50 for human NCM460 cells to IC50 for human SW480 cells

IC50 (A549) [µM] | Activity (Pyruvate kinase PKM) | SMILES | IC50 (HCT-116) [µM] | IC50 (U2OS) [µM] | IC50 (HT-29) [µM] | IC50 (MDA-MB-231) [µM] | IC50 (SW480) [µM] | IC50 (HepG2) [µM] | IC50 (NCM460) [µM] | selectivity ratio [1] | Ratio IC50 [2]
3.18 | Active | C=C1C(=O)O[C@H]2[C@H]1CC/C(COC(=O)c1ccc3ncccc3c1)=C/CC[C@@]1(C)O[C@@H]21 | 1.6 | 3.11 | 1.33 | 1.99 | 0.29 | 6.6 |  |  | 
10.3 |  | C=C1C(=O)O[C@@H]2C3O[C@]3(C)CC/C=C(\C)CC[C@@H]12 (some centres undefined) | 8.12 | 7 | 7.41 | 8.68 | 3.56 | 26.1 | 2.78 | 0.38 | 0.78
2.95 |  | C=C1C(=O)O[C@H]2[C@H]1CC/C(COC(=O)c1ccc3ccccc3n1)=C/CC[C@@]1(C)O[C@@H]21 | 2.97 | 2.22 | 2.68 | 2.14 | 1.2 | 8.84 |  |  | 
1.34 |  | C=C1C(=O)O[C@H]2[C@H]1CC/C(COC(=O)c1ccc3nc(C)ccc3c1)=C/CC[C@@]1(C)O[C@@H]21 | 2.78 | 1.68 | 1.61 | 1.29 | 0.79 | 7.79 |  |  | 
2.74 |  | C=C1C(=O)O[C@H]2[C@H]1CC/C(C(=O)Oc1ccc3nccc(Cl)c3c1)=C/CC[C@@]1(C)O[C@@H]21 | 1.29 | 2.21 | 1.22 | 2.25 | 0.59 | 4.03 |  |  | 
